Experimental data reported in patent US20150087722A1, “TREATMENT FOR BREAST TUMOR CELL METASTASIS” (China Medical University, priority 2012, published 2015).

Assays:
[1] = tested on: Skin Tumor Cell (A2058 cell strain); assay: MTT cell viability assay; assay type: cell-based; details: Homo sapiens
[2] = tested on: EMT-related proteins in breast tumor cells MCF-7; assay: western blotting of EMT-related proteins; assay type: cell-based, human; details: MCF-7, 10, 15 and 20 μM, 24 h, with dose increasing
Procedure: (§1) FIG. 2A illustrates the expression results of EMT-related proteins in breast tumor cells MDA-MB-231 after the breast tumor cells MDA-MB-231 have been respectively cultured under compound II having concentrations of 0, 0.5, 1 and 2 μM for 24 h; and FIG. 2B illustrates the expression results of EMT-related proteins in breast tumor cells MCF-7 after the breast tumor cells MCF-7 have been respectively cultured under the compound II having concentrations of 0, 10, 15 and 20 μM for 24 h. FIG. 3A illustrates the western blotting results of EMT-related proteins in the breast tumor cells MDA-MB-468, where the breast tumor cells MDA-MB-468 are treated with the compound I having concentrations of 0, 0.5, 1 and 2 μM for 24 h, and FIG. 3B illustrates the western blotting results of EMT-related proteins in the breast tumor cells MDA-MB-435, where the breast tumor cells MDA-MB-435 are treated with the compound I having concentrations of 0, 2.5, 5 and 7.5 μM for 24 h. FIG. 4 illustrates the western blotting results of EMT-related proteins in the human normal breast cells MCF-10A stimulated by TNF-α/TGF-β, where the human normal breast cells MCF-10A are treated with the compound I having concentrations of 2 μM for 24 h. The human normal breast cells stimulated by TNF-α/TGF-β can cause TNF-α/TGF-β-induced EMT in the human normal breast cells MCF-10A. The steps of western blotting include: washing cells with PBS twice at 4° C.; adding a lysis buffer and rubbing the cells by a rubbr policeman so as to lyse cells; putting the lysed cell solution into a 1.5 ml microcentrifuge tube and shaking for 1 min; centrifuging at 12000 rpm for 10 min and taking the supernatant; measuring concentration of the protein through a Bio-Rad protein assay kit; and storing the remained extracted protein solution at −70° C.; taking 100 μg protein solution and adding a SDS/protein loading buffer having the same volume, where the SDS/protein loading buffer has a concentration two times larger than the protein solution; boiling the mixture of the protein solution and the SDS/protein loading buffer at 100° C. for 10 min; cooling and loading the protein samples in each hole of gel; adjusting the voltage to 100 V and running the protein samples on the gel until the tracking dye in the sample buffer reaches the bottom of the gel; and subsequently transferring the protein from the gel using electrophoresis. A PVDF membrane was soaked in methanol until the paper was totally wet. The paper was arranged in a transfer tank placed in a 4° C. ice box, and the protein transfer was performed at a current of […] for 4 h. The PVDF membrane was then taken out, placed in a PBS blocking solution including 1% BSA and shaken for 2 h. Then the PVDF membrane was placed in a blocking solution including a primary antibody and slowly shaken at 100 rpm for 1 h at the room temperature. Subsequently the PVDF membrane was washed with PBST for third times, each time for 3-5 min. According to different […] and different dilution ratios, the PVDF membrane was shaken for 2 h on a horizontal rotator and then washed with PBST for three times. Then luminescence image equipment was used, where the PVDF was placed onto a black metal plate by a plastic pincer and the face including protein was upwards, a 1:1 mixed Chemiluminesent Substrate was added into the membrane and the exposure time depends on the fluorescence intensity of antibodies.

[3] = tested on: PI3K and Akt in breast tumor cells; assay: western blotting of PI3K and Akt and phosphorylation; assay type: cell-based, human; details: 2 μM, 0-120 min
Procedure: The steps of western blotting include: washing cells with PBS twice at 4° C.; adding a lysis buffer and rubbing the cells by a rubbr policeman so as to lyse cells; putting the lysed cell solution into a 1.5 ml microcentrifuge tube and shaking for 1 min; centrifuging at 12000 rpm for 10 min and taking the supernatant; measuring concentration of the protein through a Bio-Rad protein assay kit; and storing the remained extracted protein solution at −70° C.; taking 100 μg protein solution and adding a SDS/protein loading buffer having the same volume, where the SDS/protein loading buffer has a concentration two times larger than the protein solution; boiling the mixture of the protein solution and the SDS/protein loading buffer at 100° C. for 10 min; cooling and loading the protein samples in each hole of gel; adjusting the voltage to 100 V and running the protein samples on the gel until the tracking dye in the sample buffer reaches the bottom of the gel; and subsequently transferring the protein from the gel using electrophoresis. […] Then luminescence image equipment was used, where the PVDF was placed onto a black metal plate by a plastic pincer and the face including protein was upwards, a 1:1 mixed Chemiluminesent Substrate was added into the membrane and the exposure time depends on the fluorescence intensity of antibodies. […]

[4] = tested on: EMT-related proteins in breast tumor cells MDA-MB-435; assay: western blotting of EMT-related proteins; assay type: cell-based, human; details: MDA-MB-435, 2.5, 5 and 7.5 μM, 24 h, with dose increasing
Procedure: as §1

[5] = tested on: EMT-related proteins in breast tumor cells MDA-MB-468; assay: western blotting of EMT-related proteins; assay type: cell-based, human; details: MDA-MB-468, 0.5, 1 and 2 μM, 24 h, with dose increasing
Procedure: as §1

Row | IC50 [1] | Structure (SMILES) | expression amount of E-cadherin, p-β-catenin and occludin [2] | expression amount of proteins facilitating tumor cell proliferation (Twist, Snail, vimentin, β-catenin) [2] | phosphorylation of PI3K and Akt [3] | protein expression of PI3K and Akt [3] | expression amount of E-cadherin and occludin [4] | expression amount of proteins facilitating tumor cell proliferation (Snail, vimentin, β-catenin) [4] | expression amount of E-cadherin and occludin [5] | expression amount of proteins facilitating tumor cell proliferation (Snail, vimentin, β-catenin) [5]
1 | 23.6 µM | COC1=C(OC)C(=O)C(C)=C(C)C1=O [compound II] | increased | decreased | probably inhibited | not affected | – | – | – | –
2 | – | COC1=C(OC)C(=O)C(C)=CC1=O [compound I] | – | – | – | – | increased | decreased | increased | decreased
